Data as given in patent US4505898A, “Derivatives of acetylsalicylic acid and substituted phenylacetic acids and compositions containing them” (priority 1983, dated 1985).

Legend:
[1] = tested on: carrageenin-induced paw oedema; test: inhibition of experimentally-induced (carrageenin) paw oedema in rats; assay type: in vivo; conditions: rats fasted 18 hours; compound in aqueous 1% tragacanth, 25 ml/kg, 45 min before subplantar 0.1 ml 1% carrageenin; dose not given
Method: For this purpose, the well known test for the inhibition of experimentally-induced paw oedema in rats was used. The test was carried out as follows.
The rats are fasted 18 hours prior to dosing, but water is made available to them. Test compounds are then administered in aqueous 1% tragacanth at a dose volume of 25 ml/kg body weight. One group of rats is given vehicle only at the same dose volume. Forty five minutes later, all rats are given a subplantar injection of 0.1 ml of a 1% solution of carrageenin in 0.9% saline in the left hind paw. The volume of this paw is measured before and after the carrageenin injection using a volume differential meter designed by Ugo Basile.
Anti-inflammatory activity is measured as the percentage inhibition of paw oedema in the drug treated animals compared to the controls.

[2] = background statement, no test described; cited from earlier work

Compound	Anti-inflammatory activity (percentage inhibition of paw oedema compared to controls) [1] [%]	anti-inflammatory activity compared with Alclofenac [2]
C=CCOc1ccc(CC(=O)NC(C)C(=O)OC)cc1Cl (racemic) [Compound 2, 4-allyloxy-3-chloro-phenylacetyl-(DL)-alanine methyl ester]	23.1	
CCCOc1ccc(CC(=O)O)cc1Cl [4-n-propoxy-3-chloro-phenylacetic acid]		much reduced anti-inflammatory activity as compared with Alclofenac
C=CCOc1ccc(CC(=O)O)cc1Cl [Compound 1, 4-allyloxy-3-chloro-phenylacetic acid, reference compound]	36.0	
C=CCOc1ccc(CC(=O)NCC(=O)O)cc1Cl [Compound 3, 4-allyloxy-3-chloro-phenylacetyl-glycine]	34.6	
CCCOc1ccc(CC(=O)NCC(=O)O)cc1Cl [Compound 4, 4-n-propoxy-3-chloro-phenylacetyl-glycine]	35.2	
